From US9266883B2, “Ring-fused bicyclic pyridyl derivatives as FGFR4 inhibitors” (Novartis AG, priority 2013, dated 2016)
Counter-ions that a name gives are not always drawn. Like-named read-outs stand apart in the source and are kept apart here.

Tests used:
Tel-FGFR4 = Tel-FGFR4 (Homo sapiens (Human), UniProt P22455); assay: In vitro cellular kinase assay for FGFR4 (BaF3-Tel-FGFR4 cells, MSD capture ELISA of tyrosine phosphorylation); format: cell-based
[1] = biological target: FGFR4 (GST-FGFR4(388-802)) (Homo sapiens (Human), UniProt P22455); assay: In-vitro biochemical kinase assay for FGFR4 (Caliper microfluidic mobility shift)
Sequence of FGFR4 (GST-FGFR4(388-802)) (P22455 388-802): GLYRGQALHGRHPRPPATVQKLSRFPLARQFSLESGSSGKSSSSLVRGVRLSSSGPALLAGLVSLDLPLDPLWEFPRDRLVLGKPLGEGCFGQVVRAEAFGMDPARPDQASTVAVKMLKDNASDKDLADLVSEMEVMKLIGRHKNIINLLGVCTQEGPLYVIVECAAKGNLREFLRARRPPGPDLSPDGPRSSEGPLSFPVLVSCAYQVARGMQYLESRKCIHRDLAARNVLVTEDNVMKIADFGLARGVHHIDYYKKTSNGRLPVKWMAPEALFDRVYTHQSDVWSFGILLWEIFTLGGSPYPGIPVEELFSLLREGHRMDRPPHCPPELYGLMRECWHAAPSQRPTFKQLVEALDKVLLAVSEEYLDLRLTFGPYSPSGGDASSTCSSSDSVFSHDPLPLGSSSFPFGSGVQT

[2] = BaF3-Tel-FGFR4 cells, 1 hour incubation, read-out: Cellular BaF3 FGFR4 IC50
[3] = read-out: Biochemical FGFR4 IC50
[4] = Cellular BaF3 FGFR4 assay, read-out: Cellular IC50
[5] = biochemical FGFR4 assay, read-out: Biochemical IC50

Sequence of Tel-FGFR4 (P22455 other isoform, or with tags, fused parts or gaps): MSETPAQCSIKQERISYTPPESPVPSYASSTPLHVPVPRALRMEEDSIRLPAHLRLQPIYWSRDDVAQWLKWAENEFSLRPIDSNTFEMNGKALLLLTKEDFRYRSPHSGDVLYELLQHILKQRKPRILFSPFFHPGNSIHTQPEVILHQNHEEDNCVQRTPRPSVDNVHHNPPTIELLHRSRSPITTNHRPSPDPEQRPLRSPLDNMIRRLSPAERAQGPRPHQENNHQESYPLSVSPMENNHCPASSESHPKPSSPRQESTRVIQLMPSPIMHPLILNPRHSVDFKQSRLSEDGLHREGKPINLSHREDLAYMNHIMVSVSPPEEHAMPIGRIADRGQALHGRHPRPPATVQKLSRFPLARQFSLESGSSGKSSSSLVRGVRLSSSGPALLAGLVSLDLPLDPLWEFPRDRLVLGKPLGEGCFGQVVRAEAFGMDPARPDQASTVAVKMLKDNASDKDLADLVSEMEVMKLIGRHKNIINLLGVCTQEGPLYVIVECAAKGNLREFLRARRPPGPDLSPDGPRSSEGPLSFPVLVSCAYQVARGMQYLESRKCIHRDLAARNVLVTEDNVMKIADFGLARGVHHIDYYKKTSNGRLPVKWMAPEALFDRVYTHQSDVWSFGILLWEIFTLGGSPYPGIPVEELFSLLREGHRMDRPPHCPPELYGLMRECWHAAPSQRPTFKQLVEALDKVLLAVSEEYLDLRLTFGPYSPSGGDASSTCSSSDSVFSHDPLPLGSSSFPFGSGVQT

Compound	IC50 (Tel-FGFR4; [2])	IC50 [1, 3]	IC50 (Tel-FGFR4; [4])	IC50 [1, 5]	IC50 (Tel-FGFR4; measured and considered as outlier values, not included in the table or list, read-out: IC50 in the cellular BaF3 FGFR4 assay, outlier values)
O=Cc1nc2c(cc1CO)CCCN2C(=O)Nc1cc(O[C@H]2CCOC2)c(Cl)cn1 [Example 72, (S)-N-(5-chloro-4-((tetrahydrofuran-3-yl)oxy)pyridin-2-yl)-7-formyl-6-(hydroxymethyl)-3,4-dihydro-1,8-naphthyridine-1(2H)-carboxamide]	57.5 nM	21 nM			
COCCNc1cc(NC(=O)N2CCCc3cc(CN(C)C(C)=O)c(C=O)nc32)ncc1C(F)(F)F [7-formyl-N-(4-((2-methoxyethyl)amino)-5-(trifluoromethyl)pyridin-2-yl)-6-((N-methylacetamido)methyl)-3,4-dihydro-1,8-naphthyridine-1(2H)-carboxamide]			11.5 nM	2.3 nM	
COC[C@H](C)Oc1cc(NC(=O)N2CCCc3cc(CN4CCCC4=O)c(C=O)nc32)ncc1C#N [(S)-N-(5-cyano-4-((1-methoxypropan-2-yl)oxy)pyridin-2-yl)-7-formyl-6-((2-oxopyrrolidin-1-yl)methyl)-3,4-dihydro-1,8-naphthyridine-1(2H)-carboxamide]			7.6 nM	4.6 nM	
CC(=O)N(C)Cc1cc2c(nc1C=O)N(C(=O)Nc1cc(NCCO)c(C#N)cn1)CCC2 [N-(5-cyano-4-((2-hydroxyethyl)amino)pyridin-2-yl)-7-formyl-6-((N-methylacetamido)methyl)-3,4-dihydro-1,8-naphthyridine-1(2H)-carboxamide]			8.1 nM	0.5 nM	
COC(C)(C)CNc1cc(NC(=O)N2CCCc3cc(C(F)F)c(C=O)nc32)ncc1C#N [N-(5-cyano-4-((2-methoxy-2-methylpropyl)amino)pyridin-2-yl)-6-(difluoromethyl)-7-formyl-3,4-dihydro-1,8-naphthyridine-1(2H)-carboxamide]			37 nM	5.9 nM	
CC(C)Nc1cc(NC(=O)N2CCCc3cc(C(F)F)c(C=O)nc32)ncc1C#N [N-(5-cyano-4-(isopropylamino)pyridin-2-yl)-6-(difluoromethyl)-7-formyl-3,4-dihydro-1,8-naphthyridine-1(2H)-carboxamide]			20.3 nM	1.3 nM	
O=Cc1nc2c(cc1CO)CCCN2C(=O)Nc1cc(O[C@H]2CCOC2)ccn1 [Example 71, (S)-7-formyl-6-(hydroxymethyl)-N-(4-((tetrahydrofuran-3-yl)oxy)pyridin-2-yl)-3,4-dihydro-1,8-naphthyridine-1(2H)-carboxamide]	1570 nM	810 nM			
COCCNc1cc(NC(=O)N2CCCc3cc(CN4CCCC4=O)c(C=O)nc32)ncc1C#N [N-(5-cyano-4-((2-methoxyethyl)amino)pyridin-2-yl)-7-formyl-6-((2-oxopyrrolidin-1-yl)methyl)-3,4-dihydro-1,8-naphthyridine-1(2H)-carboxamide]			3.6 nM	1.1 nM	
COC[C@@H](C)Oc1nc(NC(=O)N2CCCc3cc(CO)c(C=O)nc32)ncc1Cl [Example 59, (R)-N-(5-chloro-4-((1-methoxypropan-2-yl)oxy)pyrimidin-2-yl)-7-formyl-6-(hydroxymethyl)-3,4-dihydro-1,8-naphthyridine-1(2H)-carboxamide]	105 nM	48 nM			
CC(C)Oc1cc(NC(=O)N2CCCc3cc(CN4CCOC4=O)c(C=O)nc32)ncc1C#N [N-(5-cyano-4-isopropoxypyridin-2-yl)-7-formyl-6-((2-oxooxazolidin-3-yl)methyl)-3,4-dihydro-1,8-naphthyridine-1(2H)-carboxamide]			5.6 nM	1.3 nM	
CC(C)Nc1cc(NC(=O)N2CCCc3cc(CN(C)C(=O)CN(C)C)c(C=O)nc32)ncc1C#N [N-(5-cyano-4-(isopropylamino)pyridin-2-yl)-6-((2-(dimethylamino)-N-methylacetamido)methyl)-7-formyl-3,4-dihydro-1,8-naphthyridine-1(2H)-carboxamide]			11.5 nM	0.6 nM	
N#Cc1cnc(NC(=O)N2CCCc3cc(CO)c(C=O)nc32)cc1OC1CCOCC1 [Example 53, N-(5-cyano-4-((tetrahydro-2H-pyran-4-yl)oxy)pyridin-2-yl)-7-formyl-6-(hydroxymethyl)-3,4-dihydro-1,8-naphthyridine-1(2H)-carboxamide]	36 nM	2.9 nM			
N#Cc1cnc(NC(=O)N2CCCc3ccc(C=O)nc32)cc1C#N [Example 17, N-(4,5-dicyanopyridin-2-yl)-7-formyl-3,4-dihydro-1,8-naphthyridine-1(2H)-carboxamide]	914 nM	40 nM			
CC(C)Oc1cc(NC(=O)N2CCCc3cc(CO)c(C=O)nc32)ncc1C#N [N-(5-cyano-4-isopropoxypyridin-2-yl)-7-formyl-6-(hydroxymethyl)-3,4-dihydro-1,8-naphthyridine-1(2H)-carboxamide]			9.1 nM	2.8 nM	
COC[C@@H](C)Oc1cc(NC(=O)N2CCCc3cc(CN(C)C(C)=O)c(C=O)nc32)ncc1C#N [(R)-N-(5-cyano-4-((1-methoxypropan-2-yl)oxy)pyridin-2-yl)-7-formyl-6-((N-methylacetamido)methyl)-3,4-dihydro-1,8-naphthyridine-1(2H)-carboxamide]			3.7 nM	0.5 nM	174 nM
COCCNc1cc(NC(=O)N2CCCc3cc(CN4C[C@@H](N(C)C)CC4=O)c(C=O)nc32)ncc1C#N [(S)-N-(5-cyano-4-((2-methoxyethyl)amino)pyridin-2-yl)-6-((4-(dimethylamino)-2-oxopyrrolidin-1-yl)methyl)-7-formyl-3,4-dihydro-1,8-naphthyridine-1(2H)-carboxamide]			5.8 nM	0.6 nM	
COCCOc1cc(NC(=O)N2CCCc3cc(CN4CCNCC4=O)c(C=O)nc32)ncc1C#N [N-(5-cyano-4-(2-methoxyethoxyl)pyridin-2-yl)-7-formyl-6-((2-oxopiperazin-1-yl)methyl)-3,4-dihydro-1,8-naphthyridine-1(2H)-carboxamide trifluoroacetate]			56 nM	4.6 nM	
CCN(Cc1cc2c(nc1C=O)N(C(=O)Nc1cc(NC(C)C)c(C#N)cn1)CCC2)C(=O)CN(C)C [N-(5-cyano-4-(isopropylamino)pyridin-2-yl)-6-((2-(dimethylamino)-N-ethylacetamido)methyl)-7-formyl-3,4-dihydro-1,8-naphthyridine-1(2H)-carboxamide]			10.4 nM	0.8 nM	
COCCNc1cc(NC(=O)N2CCCc3cc(CN4CC[C@@H](N(C)C)C4=O)c(C=O)nc32)ncc1C#N [(R)-N-(5-cyano-4-((2-methoxyethyl)amino)pyridin-2-yl)-6-((3-(dimethylamino)-2-oxopyrrolidin-1-yl)methyl)-7-formyl-3,4-dihydro-1,8-naphthyridine-1(2H)-carboxamide]			3.9 nM	1.6 nM	
N#Cc1cnc(NC(=O)N2CCCc3cc(CN4CC[C@H](O)C4=O)c(C=O)nc32)cc1OCC(F)F [(S)N-(5-cyano-4-(2,2-difluoroethoxyl)pyridin-2-yl)-7-formyl-6-((3-hydroxy-2-oxopyrrolidin-1-yl)methyl)-3,4-dihydro-1,8-naphthyridine-1(2H)-carboxamide]			13.5 nM	4.8 nM	
COCCNc1cc(NC(=O)N2CCCc3cc(CN4C(=O)CN(C)CC4(C)C)c(C=O)nc32)ncc1C#N [N-(5-cyano-4-((2-methoxyethyl)amino)pyridin-2-yl)-7-formyl-6-((2,2,4-trimethyl-6-oxopiperazin-1-yl)methyl)-3,4-dihydro-1,8-naphthyridine-1(2H)-carboxamide]			11 nM	1.4 nM	
